Values joined by “and” are separate entries in the source; they are usually repeats but may differ in a detail not shown here. Equal entries are not always repeated.
Target: Nonstructural protein 3 (Zika virus, UniProt A0A024AXB9)
Assay: Functional biochemical assay to identify treatments for viral infectious disease that targets Zika NS2B-NS3 protease. Utilizing a direct enzyme activity measurement method, reading the fluorescence intensity is used to characterize the relative potency of inhibitors as IC50.
Design: species or system PRVABC59

Nonstructural protein 3, sequence (A0A024AXB9 whole entry): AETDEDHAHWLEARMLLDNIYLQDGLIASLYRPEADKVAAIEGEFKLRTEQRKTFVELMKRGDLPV

Structure (SMILES) | IC50
NCc1ccccc1NC(=O)c1cc(Cl)cc(NC(=O)OCc2ccccc2)c1 | > 99.5 µM
Cc1cc(C#N)cc2c(Cc3ccc(-c4nnn[nH]4)cc3)c[nH]c12 | > 99.5 µM
Clc1snnc1CN1CCC(c2nc3ccccc3o2)CC1 | > 99.5 µM
O=C(Nc1cc(Cl)cc([C@H]2[C@H](CO)[C@@H]2c2cccc(-c3nn[nH]n3)c2)c1)OCc1ccccc1 | 84.1 µM
C=CC[C@H]1NCc2cc(N[C@H](C(=O)NC(C)C)c3cccc4[nH]ncc34)ccc21 | > 25 µM
CNC(=O)c1cc(CN)cc([C@@H]2C[C@H]2c2cc(Cl)cc(NC(=O)OCc3ccccc3)c2)c1 | 8.64 µM
Cc1oc(C2CC2)nc1C(=O)Nc1cc(-c2cccnc2)ccn1 | > 25 µM
O=C(N[C@H](C(=O)NCc1cccc(CO)n1)c1ccc(OCc2ccccc2)cc1)OCc1ccccc1 | > 99.5 µM
c1csc(-c2nnc(Sc3ncnc4sccc34)o2)c1 | > 99.5 µM
CCCCSc1ccc(Cl)cc1C(=O)Nc1cccc(CN)c1 | 22.3 µM
O=C(Nc1ccc2c(c1)CNC2)c1ccc2c(c1)CCC2 | 11.7 µM
O=C1Cc2c(cccc2C(=O)Nc2ccn(C[C@H]3CCOC3)n2)N1 | > 25 µM
O=C(Nc1cc(Cl)cc([C@H](C#CCO)Nc2ccc(-c3nn[nH]n3)cc2)c1)OCc1ccccc1 | 22.7 µM
O=C(Nc1cc(Cl)cc(C(=O)NCC[C@H]2C[C@@H]2C(=O)O)c1)OCc1ccccc1 | > 99.5 µM
CC(C)CNC(=O)c1cc(Cl)ccc1NS(=O)(=O)c1ccc(Oc2ccccc2Cl)cc1 | 34.3 µM
Cc1ccc(NC(=O)OC(C)(C)C)c2[nH]cc(CN3CCC(c4cscn4)CC3)c12 | > 99.5 µM
O=C(O)c1cc(Cl)ccc1S(=O)(=O)NC1CCN(c2ncnc3c2CCC3)CC1 | > 99.5 µM
N[C@H]1CCc2ncc(NS(=O)(=O)c3ccc(Oc4ccccc4Cl)cc3)cc2C1 | > 99.5 µM
NCc1cccc(NC(=O)[C@H]2CCc3nnc(C4CC4)n3C2)c1 | > 99.5 µM
CC1(c2nc(C(=O)Nc3cc(-c4cccnc4)ccn3)no2)CC1 | > 25 µM
O=C(Nc1ccc2c(c1)CNC2)c1c(Br)cc(Cl)c2[nH]ncc12 | 9.14 µM
O=C1Cc2cc(C(=O)Nc3ccc4c(c3)CNC4)ccc2N1 | 2.41 µM and 6.85 µM
O=C(O)c1cc(Cl)ccc1S(=O)(=O)Nc1ccc(S(=O)(=O)N2CCCCC2)cc1 | > 99.5 µM
NCc1ccccc1Oc1ccc(S(=O)(=O)Nc2ccc(Cl)cc2C(=O)O)cc1 | > 99.5 µM
NCc1cc(C(=O)N[C@H]2CCCOC2)cc([C@@H]2C[C@H]2c2cc(Cl)cc(NC(=O)OCc3ccccc3)c2)c1 | 11.4 µM

Structure (SMILES) | IC50
CCn1c(=O)c(N2C[C@H]3CN(C)CC[C@H]3C2)nc2ccccc21 | > 99.5 µM
CN(C)[C@@H]1CCC[C@@H](C(=O)Nc2cccc(CN)c2)C1 | > 99.5 µM
CCn1ccnc(N2C[C@H](c3c[nH]c4ccccc34)[C@H](N3C(=O)c4ccccc4C3=O)C2)c1=O | > 99.5 µM
NCc1cccc(NC(=O)c2c(C(F)(F)F)nc3n2CCCC3)c1 | > 99.5 µM
NCc1cccc(NC(=O)[C@@H](NC(=O)OCc2ccccc2)C2CCN(S(=O)(=O)Cc3ncon3)CC2)c1 | > 99.5 µM
CCSc1ccc(Cl)cc1C(=O)Nc1ccc2c(c1)CNC2 | 0.706 µM
NCc1cccc(NC(=O)c2cc(Br)cc3[nH]ccc23)c1 | 4.73 µM
NC1CCN(C(=O)c2cc(Cl)cc(NC(=O)OCc3ccccc3)c2)CC1 | > 99.5 µM
CN(C)CCC(=O)N1CCC([C@@H](NC(=O)OCc2ccccc2)C(=O)Nc2cccc(CN)c2)CC1 | > 99.5 µM
CCn1cc(-c2cccc(OC)c2F)nc(N2CC[C@@H](CO)C2)c1=O | > 99.5 µM
Cc1ncc(COc2ccc([C@@H](NC(=O)OCc3ccccc3)C(=O)Nc3cccc(CN)c3)cc2)o1 | > 99.5 µM
NCc1cccc(NC(=O)[C@H](NC(=O)OCc2ccccc2)C2CCN(C(=O)C3CCOCC3)CC2)c1 | > 99.5 µM
Cn1nccc1-c1ccc([C@@H](NC(=O)OCc2ccccc2)C(=O)Nc2cccc(CN)c2)cc1 | > 99.5 µM
O=C1Cc2c(cccc2C(=O)N[C@H]2CCC[C@@H](C(=O)NC3CC3)C2)N1 | > 25 µM
CN(C)Cc1ccc(C(=O)Nc2cc(Cl)cc(C(=O)NC(C)(C)CO)c2)[nH]1 | > 99.5 µM
Cc1c(C(=O)Nc2cc(C(=O)N3CC(CO)C3)ccn2)cc(C2CC2)n1C | > 25 µM
NCc1cccc(N[C@H](CCCO)c2cc(Cl)cc(NC(=O)OCc3ccccc3)c2)c1 | 62.3 µM
C=CC[C@]1(NC(=O)c2cc(Cl)cc(NC(=O)OCc3ccccc3)c2)CCNC1 | > 99.5 µM
O=c1c2ccccc2nnn1CSc1nnc(-c2ccccc2)o1 | > 99.5 µM
NCc1cc(CC(=O)O)cc([C@H]2C[C@@H]2c2cc(Cl)cc(NC(=O)OCc3ccccc3)c2)c1 | > 25 µM
O=C(O)c1cc(Cl)ccc1S(=O)(=O)Nc1ccc(-c2n[nH]c3c2CCCC3)cc1 | > 99.5 µM
c1nc(C2CCN(Cc3n[nH]c4c3COCC4)CC2)cs1 | > 99.5 µM
CN1C(=O)CC[C@H]1c1nc2c(C(=O)Nc3ccc4c(c3)CNC4)cc(F)cc2[nH]1 | 0.264 µM
O=C(Nc1ccc2c(c1)CNC2)c1cc(Cl)cc(N2CCCC2=O)c1 | 0.187 µM
N#Cc1ccccc1O[C@H]1CC[C@H](NS(=O)(=O)c2ccc(Cl)cc2C(=O)O)CC1 | > 99.5 µM

Structure (SMILES) | IC50
O=C(Nc1cc(Cl)cc(C(=O)Nc2cccc(CC3CCNCC3)c2)c1)OCc1ccccc1 | > 99.5 µM
O=C(Nc1cc(Cl)cc(C(=O)NC[C@@]23CN[C@H](CCO2)C3)c1)OCc1ccccc1 | > 99.5 µM
COCCCC(=O)N1CCC([C@H](NC(=O)OCc2ccccc2)C(=O)Nc2cccc(CN)c2)CC1 | > 99.5 µM
NCc1cccc(CCc2cc(Cl)cc(NC(=O)OCc3ccccc3)c2)c1 | 9.6 µM
O=C(NCC1CCOCC1)[C@H](Nc1ccc2c(c1)CNC2)c1cc(Cl)cc2[nH]ncc12 | 0.209 µM
CCCN1C(=O)[C@](C#N)(Nc2cccc(-c3nn[nH]n3)c2)c2cc(Cl)ccc21 | > 99.5 µM
Cn1nc(C(=O)Nc2cc(CCCN)ccn2)cc1C1CC1 | > 25 µM
Cc1ccccc1-c1nc2c(C(=O)Nc3ccc4c(c3)CNC4)cc(F)cc2[nH]1 | 31 nM (2×) and 18 nM
CCO[C@@H]1CC[C@H]1NC(=O)c1cccc2c1CC(=O)N2 | > 25 µM
CC(C)[C@@H]1CC[C@@H](C)C[C@H]1C(=O)Nc1cccc(CN)c1 | > 99.5 µM
O=C(N[C@@H](C(=O)Nc1nc2c(s1)CNC2)c1ccc(OCc2ccccc2)cc1)OCc1ccccc1 | > 99.5 µM
COC(=O)c1cncc(OCc2cc(OC)nc(N3CCNCC3)n2)c1 | > 99.5 µM
c1cc2sccc2c(N2CCN(Cc3ccc4cn[nH]c4c3)CC2)n1 | > 99.5 µM
N#C[C@H](Nc1cccc(-c2nn[nH]n2)c1)c1cc(Cl)cc2[nH]ncc12 | > 99.5 µM
c1ccc2c(Cc3ccc(-c4nnn[nH]4)cc3)c[nH]c2c1 | > 99.5 µM
O=C1Cc2c(cc(Br)cc2C(=O)Nc2ccc3c(c2)C(=O)OC3)N1 | > 25 µM
O=C(Nc1cc(Cl)cc(CNc2cccc(-c3nn[nH]n3)c2)c1)OCc1ccccc1 | 27.3 µM
O=C(Nc1ccc2c(c1)CNC2)c1cc(Cl)cc2[nH]c(-c3cnccc3O)nc12 | 0.395 µM
Nc1ccc(/C=C/C(=O)C(=O)N2CCN(CCc3ccccc3)CC2)cc1 | > 99.5 µM
N#C[C@H](Nc1ccc2c(c1)CNC2)c1cncc2ccccc12 | 3.87 µM
Cc1cc(NC(=O)c2cc(C3CC3)n(C)c2C)ncc1S(N)(=O)=O | > 99.5 µM
COCc1nn(CC#Cc2ccc(Cl)cc2)c(=O)o1 | > 99.5 µM
O=C(Nc1cccc([C@@H]2C[C@H]2C(=O)O)c1)c1cc(Cl)cc2[nH]ncc12 | > 99.5 µM
CC(C)c1cc(Br)cc(C(=O)Nc2ccc3c(c2)CNC3)c1 | 0.393 µM
COc1ccc2c(c1)c(C(=O)Nc1cccc(CN)c1)c(C)n2C1CCCC1 | > 99.5 µM

Structure (SMILES) | IC50
O=C(Nc1ccc2c(c1)CNC2)c1cc(Cl)cc2[nH]c(-c3cn[nH]c3)cc12 | > 25 µM
Cc1noc(C)c1-c1ccc([C@@H](NC(=O)OCc2ccccc2)C(=O)Nc2cccc(CN)c2)cc1 | 57.3 µM
O=C(Nc1cc(Cl)cc(C(=O)Nc2n[nH]c3c2CNC3)c1)OCc1ccccc1 | 40.3 µM
CCn1cc(-c2cccc(CN(C)C)c2)nc(N2CC[C@@H](CO)C2)c1=O | > 99.5 µM
COC(=O)c1cc(Cl)ccc1NS(=O)(=O)c1ccc(Oc2ccccc2Cl)cc1 | > 99.5 µM
NCc1cccc(NC(=O)[C@H](NC(=O)c2ccccc2Cl)c2ccc(OCc3ccccc3)cc2)c1 | 33.1 µM
O=C(NC[C@H]1CCOC1)c1cc(Cl)ccc1NS(=O)(=O)c1ccc(Oc2ccccc2Cl)cc1 | > 99.5 µM
NCc1cccc(NC(=O)c2cc(C3CC3)n3nc(C(F)(F)F)cc3n2)c1 | > 99.5 µM
NCc1cccc(NC(=O)c2nc(=O)cc(NC(=O)OCc3ccccc3)[nH]2)c1 | > 99.5 µM
CCn1c(=O)c(N2CC[C@@H](CO)C2)nc2ccc(C(=O)O)cc21 | > 99.5 µM
NCc1cccc(NC(=O)[C@H](NS(=O)(=O)C[C@H]2COCCO2)c2ccc(OCc3ccccc3)cc2)c1 | > 99.5 µM
CNC(=O)[C@H](Nc1ccc(-c2nn[nH]n2)cc1)c1cc(Cl)cc(NC(=O)OCc2ccccc2)c1 | > 99.5 µM
NCc1cccc(NC(=O)[C@@H](NC(=O)OCc2ccccc2)c2cccc(OC[C@H]3CCCO3)c2)c1 | > 99.5 µM
NCc1ccc(CNC(=O)[C@@H](NC(=O)OCc2ccccc2)c2ccc(OCc3ccccc3)cc2)cc1 | 14.2 µM and 11.5 µM
Cc1ccc(NC(=O)c2cc(C3CC3)n(C)c2C)cc1-c1cccnc1 | > 25 µM
O=C(Nc1cc(Cl)cc(C(=O)N2CCC[C@H]2c2nnn[nH]2)c1)OCc1ccccc1 | > 99.5 µM
NCc1ccccc1C(=O)Nc1ccc2c(c1)C(=O)OC2 | > 25 µM
OC[C@H]1CCN(c2ccnc(C(F)F)c2)C1 | > 99.5 µM
NCc1cc(C(=O)O)cc([C@@H]2C[C@H]2c2cc(Cl)cc(NC(=O)OCc3ccccc3)c2)c1 | > 99.5 µM
CS(=O)(=O)N1CCC([C@@H](NC(=O)OCc2ccccc2)C(=O)Nc2cccc(CN)c2)CC1 | > 99.5 µM
COc1ccc(F)cc1-c1ccc(S(=O)(=O)Nc2ccc(Cl)cc2C(=O)O)cc1 | 28.8 µM
CCn1c(=O)c(N2CC[C@H](CO)C2)nc2ccc(C(=O)NCc3ccccc3)cc21 | > 99.5 µM
N=C(N)NCCc1ccc(OC(=O)Nc2ccccc2)cc1 | > 100 µM
CCn1cnnc1COc1ccc(S(=O)(=O)Nc2ccc(Cl)cc2C(=O)O)cc1 | > 99.5 µM
COC(=O)C1(S(=O)(=O)N[C@H](C(=O)Nc2cccc(CN)c2)c2ccc(OCc3ccccc3)cc2)CCC1 | 98.1 µM

— ChEMBL document CHEMBL5604062, “ASAP - ZIKV NS2B-NS3 protease fluorescence dose response” (2024)
